ChEMBL document CHEMBL3885881, “DrugMatrix”
Where “and” joins values, the source holds several entries; their conditions need not be identical. Equal entries are not always repeated.

Species on record: Rattus norvegicus
Experiment: DrugMatrix - Regimen: Daily Repeat
Assay type: toxicity, organism-based, Sprague-Dawley
Design: regimen Daily Repeat, gender Male, age 6-8 weeks
Conditions: in vivo, po, route oral GAVAGE, vehicle .5 % CMC; for ABSOLUTE BASOPHIL / ABSOLUTE EOSINOPHIL / ABSOLUTE LYMPHOCYTE / ABSOLUTE MONOCYTE / BASOPHIL / EOSINOPHIL / ERYTHROCYTE COUNT / HEMATOCRIT / HEMOGLOBIN / LEUKOCYTE COUNT / LYMPHOCYTE / MEAN CORPUSCULAR HEMOGLOBIN / MEAN CORPUSCULAR HEMOGLOBIN CONCENTRATION / MEAN CORPUSCULAR VOLUME / MONOCYTE / NEUTROPHIL / PLATELET COUNT / ABSOLUTE SEGMENTED NEUTROPHIL / NUCLEATED RED BLOOD CELLS: tissue Blood; for ALANINE AMINOTRANSFERASE / ALBUMIN / ALKALINE PHOSPHATASE / ASPARTATE AMINOTRANSFERASE / BLOOD UREA NITROGEN / CARBON DIOXIDE / CHLORIDE / CHOLESTEROL / CREATINE PHOSPHOKINASE / CREATININE / GLUCOSE / LACTATE DEHYDROGENASE / LIPASE / PHOSPHORUS / POTASSIUM / SODIUM / TOTAL BILIRUBIN / TOTAL PROTEIN / URIC ACID: tissue Plasma
[1] = 0 mg/kg, 120 h, dose level Control, time 5 day
[2] = 0 mg/kg, […], dose level Control, time 14 day
[3] = 10 mg/kg, 72 h, dose level Low, time 3 day
[4] = 10 mg/kg, 120 h, dose level Low, time 5 day

In the case of `CN(C)CCN(Cc1cccs1)c1ccccn1`, the ABSOLUTE BASOPHIL [1] is reported as 150 cells/µL, the ABSOLUTE EOSINOPHIL [1] is reported as 110 cells/µL and the ABSOLUTE LYMPHOCYTE [1] is reported as 13400 cells/µL. It also gave an ABSOLUTE MONOCYTE [1] of 330 cells/µL, a BASOPHIL [1] of 0.78% and an EOSINOPHIL [1] of 0.62%. The “ERYTHROCYTE COUNT” value [1] was 7.12 x10E6/uL, the HEMATOCRIT [1] was 46.95% and the HEMOGLOBIN [1] was 14.55 G/DL. The “LEUKOCYTE COUNT” value [1] was 16.58 x10E3/uL, the LYMPHOCYTE [1] was 80.95% and the “MEAN CORPUSCULAR HEMOGLOBIN” value [1] was 20.45 pg. The “MEAN CORPUSCULAR HEMOGLOBIN CONCENTRATION” value [1] was 31.02 G/DL, the “MEAN CORPUSCULAR VOLUME” value [1] was 65.97 fL and the MONOCYTE [1] was 1.97%. The NEUTROPHIL [1] was 14.12%, the “PLATELET COUNT” value [1] was 1229.25 x10E3/uL and the “ALANINE AMINOTRANSFERASE” value [1] was 45 u/L. The ALBUMIN [1] was 3.8 G/DL, the “ALKALINE PHOSPHATASE” value [1] was 388 u/L and the “ASPARTATE AMINOTRANSFERASE” value [1] was 72.25 u/L. For the same compound, the “BLOOD UREA NITROGEN” value [1] was 15.75 mg/dL, the “CARBON DIOXIDE” value [1] was 37 mmol/L and the CHLORIDE [1] was 107 MEQ/L. The CHOLESTEROL [1] was 73 mg/dL, the “CREATINE PHOSPHOKINASE” value [1] was 525.5 u/L and the CREATININE [1] was 0.5 mg/dL. The GLUCOSE [1] was 179.5 mg/dL, the “LACTATE DEHYDROGENASE” value [1] was 216.25 u/L and the LIPASE [1] was 22.5 u/L. It also gave a PHOSPHORUS [1] of 11.97 mg/dL, a POTASSIUM [1] of 6.4 MEQ/L and an SODIUM [1] of 151.25 MEQ/L. For the same compound, the “TOTAL BILIRUBIN” value [1] was 0.3 mg/dL, the “TOTAL PROTEIN” value [1] was 6.55 G/DL and the “URIC ACID” value [1] was 1.35 mg/dL. For the same compound, the ABSOLUTE BASOPHIL [2] was 120 cells/µL, the ABSOLUTE EOSINOPHIL [2] was 40 cells/µL and the ABSOLUTE LYMPHOCYTE [2] was 10100 cells/µL. For the same compound, the ABSOLUTE MONOCYTE [2] was 190 cells/µL, the BASOPHIL [2] was 1.1% and the EOSINOPHIL [2] was 0.33%. The “ERYTHROCYTE COUNT” value [2] was 7.86 x10E6/uL, the HEMATOCRIT [2] was 48.5% and the HEMOGLOBIN [2] was 15.4 G/DL. For the same compound, the “LEUKOCYTE COUNT” value [2] was 11.73 x10E3/uL, the LYMPHOCYTE [2] was 85.92% and the “MEAN CORPUSCULAR HEMOGLOBIN” value [2] was 19.55 pg. The “MEAN CORPUSCULAR HEMOGLOBIN CONCENTRATION” value [2] was 31.72 G/DL, the “MEAN CORPUSCULAR VOLUME” value [2] was 61.67 fL and the MONOCYTE [2] was 1.6%. The NEUTROPHIL [2] was 10.2%, the “PLATELET COUNT” value [2] was 1212.75 x10E3/uL and the “ALANINE AMINOTRANSFERASE” value [2] was 47 u/L. For the same compound, the ALBUMIN [2] was 3.85 G/DL, the “ALKALINE PHOSPHATASE” value [2] was 356.5 u/L and the “ASPARTATE AMINOTRANSFERASE” value [2] was 87.75 u/L. For the same compound, the “BLOOD UREA NITROGEN” value [2] was 14.25 mg/dL, the “CARBON DIOXIDE” value [2] was 36.5 mmol/L and the CHLORIDE [2] was 106.5 MEQ/L. For the same compound, the CHOLESTEROL [2] was 63.25 mg/dL, the “CREATINE PHOSPHOKINASE” value [2] was 324.5 u/L and the CREATININE [2] was 0.65 mg/dL. For the same compound, the GLUCOSE [2] was 162.75 mg/dL, the “LACTATE DEHYDROGENASE” value [2] was 299 u/L and the LIPASE [2] was 16.75 u/L. The PHOSPHORUS [2] was 10.45 mg/dL, the POTASSIUM [2] was 6.6 MEQ/L and the SODIUM [2] was 152 MEQ/L. The “TOTAL BILIRUBIN” value [2] was 0.25 mg/dL, the “TOTAL PROTEIN” value [2] was 6.7 G/DL and the “URIC ACID” value [2] was 1.15 mg/dL. For the same compound, the “ABSOLUTE BASOPHIL” value [3] was 0 CELLS/uL, the “ABSOLUTE EOSINOPHIL” value [3] was 27 CELLS/uL and the “ABSOLUTE LYMPHOCYTE” value [3] was 9772.67 CELLS/uL. For the same compound, the “ABSOLUTE MONOCYTE” value [3] was 248.67 CELLS/uL, the “ABSOLUTE SEGMENTED NEUTROPHIL” value [3] was 751.67 CELLS/uL and the BASOPHIL [3] was 0%. The EOSINOPHIL [3] was 0.33%, the “ERYTHROCYTE COUNT” value [3] was 4.84 x10E6/uL and the HEMATOCRIT [3] was 31.57%. The HEMOGLOBIN [3] was 12.13 G/DL, the “LEUKOCYTE COUNT” value [3] was 10.8 x10E3/uL and the LYMPHOCYTE [3] was 90.33%. For the same compound, the “MEAN CORPUSCULAR HEMOGLOBIN” value [3] was 25.1 pg, the “MEAN CORPUSCULAR HEMOGLOBIN CONCENTRATION” value [3] was 38.43 G/DL and the “MEAN CORPUSCULAR VOLUME” value [3] was 65.27 fL. The MONOCYTE [3] was 2.33%, the NEUTROPHIL [3] was 7% and the “NUCLEATED RED BLOOD CELLS” value [3] was 0 /100WBC. The “PLATELET COUNT” value [3] was 1127 x10E3/uL, the “ALANINE AMINOTRANSFERASE” value [3] was 57.33 u/L and the ALBUMIN [3] was 3.9 G/DL. For the same compound, the “ALKALINE PHOSPHATASE” value [3] was 413.67 u/L, the “ASPARTATE AMINOTRANSFERASE” value [3] was 90.67 u/L and the “BLOOD UREA NITROGEN” value [3] was 16 mg/dL. The “CARBON DIOXIDE” value [3] was 30.33 mmol/L, the CHLORIDE [3] was 98.33 MEQ/L and the CHOLESTEROL [3] was 86 mg/dL. The “CREATINE PHOSPHOKINASE” value [3] was 368 u/L, the CREATININE [3] was 0.25 mg/dL and the GLUCOSE [3] was 147.33 mg/dL. For the same compound, the “LACTATE DEHYDROGENASE” value [3] was 103 u/L, the LIPASE [3] was 10.67 u/L and the PHOSPHORUS [3] was 10.53 mg/dL. For the same compound, the POTASSIUM [3] was 5.88 MEQ/L, the SODIUM [3] was 141.1 MEQ/L and the “TOTAL BILIRUBIN” value [3] was 0.23 mg/dL. The “TOTAL PROTEIN” value [3] was 6.23 G/DL, the “URIC ACID” value [3] was 0.43 mg/dL and the “ABSOLUTE SEGMENTED NEUTROPHIL” value [4] was 1373 CELLS/uL. The BASOPHIL [4] was 0.85% and 0%, the EOSINOPHIL [4] was 0.43% and 0.33% and the “ERYTHROCYTE COUNT” value [4] was 6.77 x10E6/uL and 5.32 x10E6/uL. For the same compound, the HEMATOCRIT [4] was 44.08% and 33.07%, the HEMOGLOBIN [4] was 13.62 G/DL and 12.93 G/DL and the “LEUKOCYTE COUNT” value [4] was 14.73 x10E3/uL and 11.23 x10E3/uL. For the same compound, the LYMPHOCYTE [4] was 80.67% and 87%, the “MEAN CORPUSCULAR HEMOGLOBIN” value [4] was 20.1 pg and 24.37 pg and the “MEAN CORPUSCULAR HEMOGLOBIN CONCENTRATION” value [4] was 30.93 G/DL and 39.13 G/DL. The “MEAN CORPUSCULAR VOLUME” value [4] was 65 fL and 62.23 fL, the MONOCYTE [4] was 2.75% and 0.33% and the NEUTROPHIL [4] was 13.88% and 12.33%. For the same compound, the “NUCLEATED RED BLOOD CELLS” value [4] was 0 /100WBC, the “PLATELET COUNT” value [4] was 1086.75 x10E3/uL and 1423 x10E3/uL and the “ALANINE AMINOTRANSFERASE” value [4] was 52.75 u/L and 43 u/L. The ALBUMIN [4] was 3.67 G/DL and 4 G/DL, the “ALKALINE PHOSPHATASE” value [4] was 395.75 u/L and 410 u/L and the “ASPARTATE AMINOTRANSFERASE” value [4] was 91 u/L and 82.67 u/L. For the same compound, the “BLOOD UREA NITROGEN” value [4] was 13.75 mg/dL and 14.67 mg/dL, the “CARBON DIOXIDE” value [4] was 36.75 mmol/L and 34.67 mmol/L and the CHLORIDE [4] was 105.75 MEQ/L and 99.33 MEQ/L. For the same compound, the CHOLESTEROL [4] was 84.75 mg/dL and 72 mg/dL, the “CREATINE PHOSPHOKINASE” value [4] was 591 u/L and 571.33 u/L and the CREATININE [4] was 0.4 mg/dL and 0.23 mg/dL. For the same compound, the GLUCOSE [4] was 181.5 mg/dL and 137.33 mg/dL, the “LACTATE DEHYDROGENASE” value [4] was 125.75 u/L and 163.67 u/L and the LIPASE [4] was 18.5 u/L and 7.33 u/L. For the same compound, the PHOSPHORUS [4] was 11.68 mg/dL and 12.63 mg/dL, the POTASSIUM [4] was 6.62 MEQ/L and 6.41 MEQ/L and the SODIUM [4] was 151 MEQ/L and 143.33 MEQ/L. The “TOTAL BILIRUBIN” value [4] was 0.28 mg/dL and 0.13 mg/dL, the “TOTAL PROTEIN” value [4] was 6.15 G/DL and 6.1 G/DL and the “URIC ACID” value [4] was 1.28 mg/dL and 0.87 mg/dL.
